Test results taken from patent publication US20260216134A1, “CHARGED PI-CONJUGATED MOLECULES FOR THE TREATMENT OF MICROBIAL INFECTIONS” (priority 2023, published 2026).
Where two headings read alike, the source gives them in different places.

Assays:
[1] = Clonogenic assay cytotoxicity in A375 cells without light; format: cell-based, human; details: human
Procedure: (§1) FIGS. 28A-28B provide a summary of the evidence of the cytotoxicity of charged pi-conjugated compounds without light. Toxicity was measured using clonogenic assay with 7 hours of incubation (contact time between molecules and A375 cells) and 7 days for colony formation. (FIG. 28A) The lethal concentration of the cyanine molecules to kill 50% of the A375 cells (Tox LC50) without light activation. (FIG. 28B) Chemical structure of exemplary charged pi-conjugated compounds. On average, 300 cells equal to 300 colonies were seeded and analyzed for each data point.
(§2) Both properties were measured using clonogenic assay with 7 hours of incubation (contact time between molecules and A375 cells) and 7 days for colony formation. 300 cells were seeded and analyzed for each data point.
(§3) More cytotoxicity tests were conducted in some additional molecules and using clonogenic assay for cell viability (FIG. 28). A375 cells were exposed to charged pi-conjugated compounds for 7 hours, in contrast to the previously presented assays which were conducted with crystal violet assay and 2 days of exposure. The data points showing the cytotoxicity quantification for each individual molecule are presented in FIG. 29, with resulting IC50 values summarized in Table 4.

[2] = tested on: A375 cancer cells (melanoma); test: Crystal violet cytotoxicity test in A375 cells without light activation; format: cell-based, human
Procedure: (§4) The inhibitory concentration of charged pi-conjugated compounds needed to inhibit the cell growth by 50% (toxicity IC50).
(§5) Most of the charged pi-conjugated compounds are aminocyanines which are functionalized with alkyl amine group. The charged pi-conjugated compounds were added to cell cultures of A375 cancer cells (human melanoma) and their cytotoxicity was quantified by the crystal violet test and/or clonogenic assays for cell viability. […] The longer the exposure the most cytotoxic the charged pi-conjugated compounds are towards A375 cells. […] The same behavior is observed: the longer the exposure, the more cytotoxic. All molecules presented here are aminocyanines except GL-261-2 which is a carboxyl-cyanine. […] This was the first time a therapeutic window of concentration that can be tuned to selectively kill cancer and/or protect cells was suspected. In finding this therapeutic window concentration and time of exposure are important variables that should be fine tuned.
(§6) Based on the finding described above, a larger set of charged pi-conjugated compounds was evaluated for cytotoxicity against A375 cancer cells as shown in FIG. 25 and FIG. 26.
(§7) The IC50 is the concentration needed to inhibit the cell viability by 50%. These molecules in FIG. 25 and FIG. 26 were evaluated by crystal violet assay and using 2 days of exposure.

[3] = as above; format: cell-based, human; details: human
Procedure: as §4, §5, §6, §7

[4] = tested on: A375 cancer cells (melanoma); test: Clonogenic assay cytotoxicity in A375 cells without light; format: cell-based, human
Procedure: as §1, §2, §3

S. aureus = test: Time-kill of combinations at 0.5×MIC; format: cell-based, Staphylococcus aureus; details: 0.5×MIC of individual agent, after 12 h of treatment
Gram-positive strains = test: MIC / MIC50 by broth microdilution in panel of Gram-positive strains; format: cell-based; details: MIC50 over all Gram-positive strains tested (Table 2)
Procedure: Antibacterial activity was assessed by determining the minimal inhibitory concentration (MIC) and the minimal bactericidal concentrations (MBC) and by monitoring time-dependent bacterial killing of exponentially growing cells. Bacterial cell suspensions (OD600≈0.02 in cation-adjusted Muller-Hinton Broth) were treated with increasing concentrations of the different molecules. The minimal inhibitory concentration (MIC) was defined as the minimal concentration of the molecule resulting in complete bacterial growth arrest. The minimal bactericidal concentration (MBC) was defined as the lowest concentration of the molecule that killed 99.9% of the inoculum. A molecule was determined to be bactericidal if the ratio of the MBC to the MIC was less than 4 to 6. […] In M. smegmatis, the antibacterial activity of charged pi-conjugated compounds was generally lower.
The MIC values for all Gram-positive strains tested (Table 2) were used to calculate the MIC50, i.e., the minimum inhibitory concentration needed to inhibit the growth of 50% of the tested isolates (FIG. 5A). […] When the average MIC50 values were evaluated, the most susceptible bacterial genera were Streptococcus sp., followed by Staphylococcus sp. In contrast, Propionibacterium sp. had the highest average MIC50 (FIG. 5B).
The broth microdilution method was used to determine the MIC of charged pi-conjugated compounds according to the CLSI guidelines. Charged pi-conjugated compound stock solutions (16 mM) were prepared in dimethyl sulfoxide (DMSO). Serial twofold dilutions of the charged pi-conjugated compounds were freshly prepared using the appropriate liquid media (Table 2), and 100 μL of each dilution was added to the appropriate wells of 96-well microtiter plates. The bacterial inoculum was further diluted in liquid media, and 100 μL was added to each well, resulting in a final cell density of ≈5×10^5 CFU mL^−1. […] A molecule was determined to be bactericidal if the ratio of the MBC to the MIC was less than 4 to 6. […]

[5] = crystal violet assay, 2 days of exposure, without light activation, read-out: IC50 (μM), cytotoxicity to A375 cancer cells
[6] = clonogenic assay, 7 hours of exposure, 7 days colony formation, without light, read-out: IC50 (μM), cytotoxicity to A375 cancer cells

CN1/C(=C/C=C2C=C(/C=C/C3=[N+](CCCCCC(=O)O)c4ccc5ccccc5c4C3(C)C)CCC/2)C(C)(C)c2c1ccc1ccccc21 [BL-242, 3-(5-carboxypentyl)-1,1-dimethyl-2-((E)-2-((E)-3-((E)-2-(1,1,3-trimethyl-1,3-dihydro-2H-benzo[e]indol-2-ylidene)ethylidene)cyclohex-1-en-1-yl)vinyl)-1H-benzo[e]indol-3-ium]
IC50 at 7 h [1]: 2 µM

CC(=O)NCCCCCC[N+]1=C(/C=C/C=C/C=C/C=C2/N(C)c3ccc4ccccc4c3C2(C)C)C(C)(C)c2c1ccc1ccccc21 [GL-362-2]
IC50 at 7 h [1]: 0.19 µM

CN(C)CCCCCC[N+]1=C(/C=C/C=C/C=C/C=C2/N(C)c3ccc4ccccc4c3C2(C)C)C(C)(C)c2c1ccc1ccccc21 [GL-291-2]
cytotoxicity at long exposure [2]: showed cytotoxicity
IC50 at 2 days [3]: 1.5 µM

C[N+]1=C(/C=C/C2=CC(=C/C=C3/N(CCCCCC(=O)NCCCCCCN)c4ccccc4C3(C)C)/CCC2)C(C)(C)c2ccccc21 [Cy7-amine]
IC50 [2]: 2 µM
IC50 [4]: 0.75 µM

gramicidin
maximum reduction in bacterial population size (S. aureus): ≈ 3 log10

COC(=O)CCCCCN1/C(=C/C=C2C=C(/C=C/C3=[N+](CCCCCC(=O)OC)c4ccc5ccccc5c4C3(C)C)CCC/2)C(C)(C)c2c1ccc1ccccc21 [BL-246-1, 3-(6-methoxy-6-oxohexyl)-2-((E)-2-((E)-3-((E)-2-(3-(6-methoxy-6-oxohexyl)-1,1-dimethyl-1,3-dihydro-2H-benzo[e]indol-2-ylidene)ethylidene)cyclohex-1-en-1-yl)vinyl)-1,1-dimethyl-1H-benzo[e]indol-3-ium]
IC50 at 7 h [1]: 0.6 µM

COC(=O)C(/C=C/C=C1/N(C)c2ccc3ccccc3c2C1(C)C)=C(C)\C=C\C1=[N+](CCCCCCN(C)C)c2ccc3ccccc3c2C1(C)C [GL-297-2]
IC50 at 2 days [3]: 1 µM
IC50 at 7 h [1]: 0.45 µM

CN1/C(=C/C=C2C=C(/C=C/C3=[N+](C)c4ccc5ccccc5c4C3(C)C)CCC/2)C(C)(C)c2c1ccc1ccccc21 [BL-141-1, 1,1,3-trimethyl-2-((E)-2-((E)-3-((E)-2-(1,1,3-trimethyl-1,3-dihydro-2H-benzo[e]indol-2-ylidene)ethylidene)cyclohex-1-en-1-yl)vinyl)-1H-benzo[e]indol-3-ium]
IC50 [2, 5]: 0.125 µM
IC50 [4, 6]: 0.14 µM

CCCCCCCCCC(=O)N[C@@H](Cc1c[nH]c2ccccc12)C(=O)N[C@H](CC(N)=O)C(=O)N[C@@H](CC(=O)O)C(=O)N[C@@H]1C(=O)NCC(=O)N[C@@H](CCCN)C(=O)N[C@@H](CC(=O)O)C(=O)N[C@H](C)C(=O)N[C@@H](CC(=O)O)C(=O)NCC(=O)N[C@H](CO)C(=O)N[C@@H]([C@H](C)CC(=O)O)C(=O)N[C@@H](CC(=O)c2ccccc2N)C(=O)O[C@@H]1C [daptomycin]
maximum reduction in bacterial population size (S. aureus): ≈ 3 log10

CN(C)CC[N+]1=C(/C=C/C2=CC(=C/C=C3/N(C)c4ccc5ccccc5c4C3(C)C)/CC(C(C)(C)C)C2)C(C)(C)c2c1ccc1ccccc21 (stereo not shown) [GL-349-2]
IC50 at 2 days [3]: 0.3 µM

C[N+]1=C(/C=C/C=C/C=C2/N(CCCCCC(=O)NCCCCCCN)c3ccc4ccccc4c3C2(C)C)C(C)(C)c2c1ccc1ccccc21.Cl.[Cl-] [Cy5.5-amine]
IC50 [2]: 2 µM
cytotoxicity at short exposure [2]: safe and showed low cytotoxicity
antibacterial activity according to MIC50 (Gram-positive strains): strongest antibacterial activity

CN(C)CC[N+]1=C(/C=C/C=C/C=C/C=C2/N(C)c3ccc4ccccc4c3C2(C)C)C(C)(C)c2c1ccc1ccccc21 [GL-308-2]
IC50 at 2 days [3]: 0.5 µM

CN1/C(=C/C=C/C=C/C=C/C2=[N+](CCCCCCN)c3ccc4ccccc4c3C2(C)C)C(C)(C)c2c1ccc1ccccc21 [GL-286]
cell viability at short incubation and low concentration ([2]; 1 day incubation, concentrations below 1 μM): can increase the cell viability
cytotoxicity at long exposure ([2]; A375, 1 day vs 2 days exposure): showed cytotoxicity
IC50 at 2 days [3, 5]: 2.88 µM
IC50 at 7 h [1, 6]: 1 µM

CN(C)CCCCCCN1/C(=C/C=C2C=C(/C=C/C3=[N+](CCCCCCN(C)C)c4ccc5ccccc5c4C3(C)C)CCC/2)C(C)(C)c2c1ccc1ccccc21.[Br-] [BL-142, 3-(6-(dimethylamino)hexyl)-2-((E)-2-((E)-3-((E)-2-(3-(6-(dimethylamino)hexyl)-1,1-dimethyl-1,3-dihydro-2H-benzo[e]indol-2-ylidene)ethylidene)cyclohex-1-en-1-yl)vinyl)-1,1-dimethyl-1H-benzo[e]indol-3-ium]
cytotoxicity at long exposure [2]: showed cytotoxicity
IC50 at 2 days [3]: 2.5 µM

C[N+]1=C(C=CC=CC=C2N(CCCCCC(=O)NCCCCCCN)c3ccccc3C2(C)C)C(C)(C)c2ccccc21 [Cy5-amine]
IC50 [2]: 8 µM

CN1/C(=C/C=C/C=C/C=C/C2=[N+](C)c3ccc4ccccc4c3C2(C)C)C(C)(C)c2c1ccc1ccccc21 [GL-176]
IC50 [2]: 0.25 µM

CN1/C(=C/C=C/C=C/C=C/C2=[N+](CCCCCC(=O)O)c3ccc4ccccc4c3C2(C)C)C(C)(C)c2c1ccc1ccccc21 [GL-261-2]
cytotoxicity at short exposure ([2]; A375, exposure ~30-50 min): safe and showed low cytotoxicity
effect toward A375 cells at short exposure ([2]; ~50 min exposure, 1-4 μM): protective effect
IC50 at 2 days [3, 5]: 2 µM
IC50 at 7 h [1, 6]: 5 µM

CN1/C(=C/C=C/C=C/C=C/C2=[N+](CCCCCC[N+](C)(C)C)c3ccc4ccccc4c3C2(C)C)C(C)(C)c2c1ccc1ccccc21 [GL-328-2]
IC50 at 2 days [3]: 7 µM
